Tested on: 997726-040-R-J2-PDC tumor spheroids, viability
Assay: Anticancer human tumor 997726-040-R-J2-PDC patient-derived squamous cell lung carcinoma cell line growth inhibition [PI3K]
Conditions: spheroids with HUVEC and MSC; for viability, T/C: stronger effect = lower value
Method in brief: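 We assembled tumor spheroids that included a stromal compartment of HUVEC and MSCs, then exposed them to targeted agents alone and together with PI3K pathway inhibitors. Concentration series descended by half-log from clinically achievable Cmax levels. Viability served as the endpoint.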

[1] = curve of first compound, second compound 0.0316 µM
[2] = curve of first compound, second compound 0.1 µM
[3] = curve of first compound, second compound 0.316 µM
[4] = curve of first compound, second compound 1 µM
[5] = second compound 0.0316 µM, first compound 0.0316 µM
[6] = second compound 0.0316 µM, first compound 0.1 µM
[7] = second compound 0.0316 µM, first compound 0.316 µM
[8] = second compound 0.0316 µM, first compound 1 µM
[9] = second compound 0.0316 µM, first compound 3.16 µM
[10] = second compound 0.0316 µM, first compound 10 µM
[11] = second compound 0.1 µM, first compound 0.0316 µM
[12] = second compound 0.1 µM, first compound 0.1 µM
[13] = second compound 0.1 µM, first compound 0.316 µM
[14] = second compound 0.1 µM, first compound 1 µM
[15] = second compound 0.1 µM, first compound 3.16 µM
[16] = second compound 0.1 µM, first compound 10 µM
[17] = second compound 0.316 µM, first compound 0.0316 µM
[18] = second compound 0.316 µM, first compound 0.1 µM
[19] = second compound 0.316 µM, first compound 0.316 µM
[20] = second compound 0.316 µM, first compound 1 µM
[21] = second compound 0.316 µM, first compound 3.16 µM
[22] = second compound 0.316 µM, first compound 10 µM
[23] = second compound 1 µM, first compound 0.0316 µM
[24] = second compound 1 µM, first compound 0.1 µM
[25] = second compound 1 µM, first compound 0.316 µM
[26] = second compound 1 µM, first compound 1 µM
[27] = second compound 1 µM, first compound 3.16 µM
[28] = second compound 1 µM, first compound 10 µM
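Note: spheroids exposed to compounds for seven days before readout.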

With `Cn1nccc1Nc1nccc(-c2ccn(C(CO)c3ccc(Cl)c(F)c3)c(=O)c2)n1` (stereo not drawn) + CC(Nc1ncnc2nc[nH]c12)c1cc2cccc(Cl)c2c(=O)n1-c1ccccc1 the IC50 [1] was over 10 µM, the IC50 [2] was over 10 µM and the IC50 [3] was over 10 µM. It also gave an IC50 [4] of over 10 µM, an IC50 (curve of first compound, second compound 3.16 µM) of over 10 µM and an IC50 (curve of first compound, second compound 10 µM) of 0.0708 µM. The viability, T/C [5] was 93.3%, the viability, T/C [6] was 81.7% and the viability, T/C [7] was 77.2%. The viability, T/C [8] was 69.3%, the viability, T/C [9] was 64.2% and the viability, T/C [10] was 59.5%. It also gave a viability, T/C [11] of 91.6%, a viability, T/C [12] of 90.1% and a viability, T/C [13] of 73.9%. The viability, T/C [14] was 69.4%, the viability, T/C [15] was 62.5% and the viability, T/C [16] was 61.8%. It also gave a viability, T/C [17] of 89.6%, a viability, T/C [18] of 93.7% and a viability, T/C [19] of 74%. For the same compound, the viability, T/C [20] was 57.2%, the viability, T/C [21] was 64.3% and the viability, T/C [22] was 62.4%. It also gave a viability, T/C [23] of 96.5%, a viability, T/C [24] of 77.6% and a viability, T/C [25] of 74.2%. It also gave a viability, T/C [26] of 67.6%, a viability, T/C [27] of 58.8% and a viability, T/C [28] of 60.2%. For the same compound, the viability, T/C (second compound 3.16 µM, first compound 0.0316 µM) was 73.9%, the viability, T/C (second compound 3.16 µM, first compound 0.1 µM) was 62.7% and the viability, T/C (second compound 3.16 µM, first compound 0.316 µM) was 61.6%. It also gave a viability, T/C (second compound 3.16 µM, first compound 1 µM) of 55.6%, a viability, T/C (second compound 3.16 µM, first compound 3.16 µM) of 57.8% and a viability, T/C (second compound 3.16 µM, first compound 10 µM) of 48.2%. For the same compound, the viability, T/C (second compound 10 µM, first compound 0.0316 µM) was 56.2%, the viability, T/C (second compound 10 µM, first compound 0.1 µM) was 47.6% and the viability, T/C (second compound 10 µM, first compound 0.316 µM) was 37.2%. For the same compound, the viability, T/C (second compound 10 µM, first compound 1 µM) was 43.6%, the viability, T/C (second compound 10 µM, first compound 3.16 µM) was 40.4% and the viability, T/C (second compound 10 µM, first compound 10 µM) was 31.1%.
With `C=CC(=O)N1CCN(c2nc(=O)n(-c3c(C)ccnc3C(C)C)c3nc(-c4c(O)cccc4F)c(F)cc23)C(C)C1` (stereo not drawn) + COc1c(OCCCN2CCOCC2)ccc2c3n(c(=NC(=O)c4cnc(N)nc4)nc12)CCN3 the IC50 (curve of first compound, second compound 0.00316 µM) was over 10 µM, the IC50 (curve of first compound, second compound 0.01 µM) was over 10 µM and the IC50 [1] was under 0.0316 µM. The IC50 [2] was under 0.0316 µM, the IC50 [3] was under 0.0316 µM and the IC50 [4] was under 0.0316 µM. For the same compound, the viability, T/C (second compound 0.00316 µM, first compound 0.0316 µM) was 71.2%, the viability, T/C (second compound 0.00316 µM, first compound 0.1 µM) was 72.5% and the viability, T/C (second compound 0.00316 µM, first compound 0.316 µM) was 85.4%. It also gave a viability, T/C (second compound 0.00316 µM, first compound 1 µM) of 77.6%, a viability, T/C (second compound 0.00316 µM, first compound 3.16 µM) of 92.2% and a viability, T/C (second compound 0.00316 µM, first compound 10 µM) of 96.4%. It also gave a viability, T/C (second compound 0.01 µM, first compound 0.0316 µM) of 53%, a viability, T/C (second compound 0.01 µM, first compound 0.1 µM) of 57.5% and a viability, T/C (second compound 0.01 µM, first compound 0.316 µM) of 51.2%. It also gave a viability, T/C (second compound 0.01 µM, first compound 1 µM) of 62.9%, a viability, T/C (second compound 0.01 µM, first compound 3.16 µM) of 63.1% and a viability, T/C (second compound 0.01 µM, first compound 10 µM) of 57.1%. It also gave a viability, T/C [5] of 33.9%, a viability, T/C [6] of 36% and a viability, T/C [7] of 34.4%. The viability, T/C [8] was 40.5%, the viability, T/C [9] was 43.2% and the viability, T/C [10] was 34.8%. It also gave a viability, T/C [11] of 28%, a viability, T/C [12] of 24.4% and a viability, T/C [13] of 25.1%. For the same compound, the viability, T/C [14] was 23.3%, the viability, T/C [15] was 22.9% and the viability, T/C [16] was 21.8%. For the same compound, the viability, T/C [17] was 6.57%, the viability, T/C [18] was 6.07% and the viability, T/C [19] was 5.29%. For the same compound, the viability, T/C [20] was 5.93%, the viability, T/C [21] was 4.93% and the viability, T/C [22] was 4.59%. It also gave a viability, T/C [23] of 2.71%, a viability, T/C [24] of 1.42% and a viability, T/C [25] of 1.53%. For the same compound, the viability, T/C [26] was 1.33%, the viability, T/C [27] was 1.27% and the viability, T/C [28] was 1.57%.
With `CC(Nc1ccc2c(c1)OCCn1cc(N3C(=O)OCC3C(F)F)nc1-2)C(N)=O` (stereo not drawn) the viability, T/C (compound 0.00316 µM) was 91.6% [middle of 8 runs], the viability, T/C (compound 0.01 µM) was 81.8% [middle of 8 runs] and the viability, T/C (compound 0.0316 µM) was 61% [middle of 8 runs]. The viability, T/C (compound 0.1 µM) was 44.3% [middle of 8 runs], the viability, T/C (compound 0.316 µM) was 32.9% [middle of 8 runs] and the viability, T/C (compound 1 µM) was 28.2% [middle of 8 runs]. For the same compound, the IC50 (compound alone, run of 06/12/2023) was 71.5 nM [middle of 8 runs].
`C#Cc1c(F)ccc2cc(O)cc(-c3ncc4c(N5CC6CCC(C5)N6)nc(OCC56CCCN5CC(F)C6)nc4c3F)c12` (stereo not drawn) was tested, and the viability, T/C (compound 0.0316 µM) was 105% [middle of 4 runs], the viability, T/C (compound 0.1 µM) was 96% [middle of 4 runs] and the viability, T/C (compound 0.316 µM) was 96.5% [middle of 4 runs]. For the same compound, the viability, T/C (compound 1 µM) was 96.6% [middle of 4 runs], the viability, T/C (compound 3.16 µM) was 92.6% [middle of 4 runs] and the viability, T/C (compound 10 µM) was 77.5% [middle of 4 runs]. For the same compound, the IC50 (curve of compound) was over 10 µM.
